The values below come from patent publication US20240050392A1, “COMPOSITIONS AND METHODS FOR IMPROVED TREATMENT OF PLATINUM-BASED CHEMOTHERAPEUTIC RESISTANT TUMORS” (THE REGENTS OF THE UNIVERSITY OF THE COLORADO, A BODY …, priority 2021, published 2024).

The conditions of data set [1]: active form, accumulates in cells; cited from earlier work.
The test system of data set [2] is KU1919, T24, and TCCSUP GemCis-resistant cells. Kind of data set: Cell culture dose response (IncuCyte growth inhibition) of tosedostat with gemcitabine and/or cisplatin. The format is cell-based, human. Here is the method:
One feature of NPEPPS is the availability of agents that inhibit its activity. Tosedostat, an orally available M1 aminopeptidase prodrug has antileukemic activity and is readily available for use. […] Tosedostat is antiproliferative, proapoptotic, and has antiangiogenic effects. The response of the KU1919, T24, and TCCSUP GemCis-resistant cells to increasing doses of tosedostat with gemcitabine, cisplatin, and gemcitabine plus cisplatin was measured. (FIGS. 3F-3H).
Cell Line Drug Treatments. Gemcitabine (Sigma) and cisplatin (Sigma) stocks were resuspended in 0.9% saline solution and tosedostat (Sigma and BOC Sciences) was resuspended in DMSO. All stocks solutions were stored protected from light and kept frozen until use. For cell culture dose response, cells were seeded in 96-well tissue culture plates with 500-2000 cells per well depending on growth rate and duration of experiment. Cells were seeded and allowed to attach overnight followed by replacing the media with fresh, pre-warmed media just prior to treatment. Drug dilutions were performed serially and using complete media (IMDM+10% FBS) and the associated drug treatments. Growth inhibition was measured using confluence estimates over time on the IncuCyte ZOOM (Essen Bioscience) over varying amounts of time depending on each experiment. Details for timing and replicates for each experiment are included in their respective figure legends.

The subject of data set [3] is bladder tumor-derived organoids. Kind of data set: Tumor-derived organoid drug screening (alamarBlue viability, reseeding). The format is cell-based, human. As for the experimental part:
Three independent organoid models derived from patients that failed between 4 to 6 cycles of neoadjuvant gemcitabine plus cisplatin chemotherapy (FIG. 10A). The organoids mimicked the morphological and genomic characteristics of the tumor from which they were derived (FIG. 10B). These organoids were treated with increasing doses of cisplatin and 20 μM of tosedostat.
Tumor-derived Organoids. Culture of the organoids. Human bladder tissue was obtained from the Erasmus MC Bladder Cancer Center, Rotterdam, the Netherlands. Bladder tumor-derived organoids from biopsies obtained through TURBT or cystectomy. Briefly, bladder tissues were washed with Advanced DMEM/F12 (Gibco) supplemented with 10 mM HEPES (Gibco), 1% GlutaMax (Gibco) and 100 μg/ml primocin (InvivoGen), henceforth Ad+++. Tissue was minced and incubated at 37° C. with the digestion solution (collagenase 2.5 mg/ml in EBSS) and isolated cells were passed through […] strainer (Falcon), washed with Ad+++ and seeded in 50 μl drops of BME (R&D system) containing 10000-15000 cells in 24 well suspension plates (Greiner). Bladder tumor organoids were cultured in a culture medium containing Ad+++ supplemented with 1×B-27 (Gibco), 1.25 mM N-acetylcysteine (Sigma), 10 mM nicotinamide, 20 μM TGFβ receptor inhibitor A83-01, 100 ng/ml recombinant human FGF10 (Peprotech), 25 ng/ml recombinant human FGF7 (Peprotech), 12.5 ng/ml recombinant human FGF2 (Peprotech), 10 μM Y27632 Rho Kinase (ROCK) Inhibitor (Sigma) and conditioned media for recombinant Rspondin (2.5% v/v), and Wnt3A (2.5% v/v). The medium was changed every three days. Organoids were passaged at a 1:3 to 1:6 ratio every 7 days using cell dissociation solution-non enzymatic (Sigma) and plated in fresh BME matrix droplets.
Drug screening. Organoids were collected 7 days after passaging, passed through a […] strainer and 1000 organoids were seeded per well of a 48-well plate in BME matrix droplets. After 24 hours cisplatin (Sigma) resuspended in PBS was added at different concentrations (2, 10, 25, and 50 μM) with or without tosedostat (20 μM) (Tocris) resuspended in DMSO. All wells were adjusted to contain less than 0.7% DMSO. Organoids were cultured for the first 6 days in the presence of drugs followed by drug withdrawal, where organoids were grown in organoid culture media for 10 days. The entire content of the wells in different treatment groups was collected, washed and reseeded after disaggregation in fresh BME, and cultured for 6 days. Cell viability was assayed using alamarBlue (Invitrogen) according to the manufacturer's instructions after 6 days of drug incubation, 10 days of drug withdrawal, and 6 days post reseeding. Viability data was normalized using organoid wells treated with vehicle control.
For orientation: The colour change of resazurin is a common sign of viable cells or microbes.

For data set [4], the system named is KU1919-GemCis and KU1919 parental cells. Kind of data set: Drug dose response with NPEPPS knockdown or overexpression. Format: cell-based, human.
The subject of another data set is KU1919 and T24 cells. Kind of data set: Intracellular carboplatin measurements with NPEPPS and LRRC8A knockdown. Format: cell-based, human. The note with it: KU1919 and T24 parental and GemCis cells.

Molecules are shown by their SMILES.

In the case of `CC(C)C[C@@H](C(=O)N[C@H](C(=O)O)c1ccccc1)[C@H](O)C(=O)NO` [CHR-79888], in data set [1], the membrane permeability entry is “poorly membrane-permeable”.

As to `CC(C)C[C@@H](C(=O)N[C@H](C(=O)OC1CCCC1)c1ccccc1)[C@H](O)C(=O)NO` [tosedostat], the “combined effect on cell growth” value in data set [2] (increasing doses of tosedostat with cisplatin) is “strongest combined effect”; in data set [2] (increasing doses of tosedostat with gemcitabine), “little to no effect”; in data set [2] (increasing doses of tosedostat with gemcitabine plus cisplatin), “strongest combined effect”. The organoid growth result in data set [3] (20 μM tosedostat in combination with 2 μM and 10 μM cisplatin) is on record as “significantly decreased organoid growth”; in data set [3] (tosedostat alone, 20 μM), “minor effect on organoid growth”.

As to `Nc1ccn([C@@H]2O[C@H](CO)[C@@H](O)C2(F)F)c(=O)n1` [gemcitabine], in data set [4] (KU1919-GemCis cells, stable NPEPPS shRNA knockdown), the “effect of NPEPPS knockdown on drug response” value is “not gemcitabine alone”. Also, the “effect of NPEPPS overexpression on drug response” value in data set [4] (KU1919 parental lines overexpressing NPEPPS) was “not gemcitabine”.

For `N.N.O=C([O-])C1(C(=O)[O-])CCC1.[Pt+2]` [carboplatin], the “NPEPPS-mediated import pattern of carboplatin compared with cisplatin” value in the data set on KU1919 and T24 cells is “the same patterns were found”.
